± gives the expanded uncertainty stated by the source.
Assay: xn = mol fraction of the nth substance listed
Conditions: Liquid, Pycnometric method

Molecule `CCCCBr` [1-bromobutane] + O=C=O has a mass density (316.1 K, 8510 kPa, x1 = 0.0245) of 593 ± 4 kg/m3, a mass density (316.1 K, 8560 kPa, x1 = 0.0245) of 604 ± 4 kg/m3 and a mass density (316.1 K, 8620 kPa, x1 = 0.0245) of 615 ± 4 kg/m3. It also gave a mass density (316.1 K, 8690 kPa, x1 = 0.0245) of 627 ± 4 kg/m3, a mass density (316.1 K, 8780 kPa, x1 = 0.0245) of 639 ± 4 kg/m3 and a mass density (316.1 K, 8880 kPa, x1 = 0.0245) of 652 ± 4 kg/m3. For the same molecule, the mass density (316.1 K, 9000 kPa, x1 = 0.0245) was 665 ± 4 kg/m3, the mass density (316.1 K, 9150 kPa, x1 = 0.0245) was 683 ± 4 kg/m3 and the mass density (316.1 K, 9340 kPa, x1 = 0.0245) was 694 ± 4 kg/m3. For the same molecule, the mass density (316.1 K, 9560 kPa, x1 = 0.0245) was 709 ± 4 kg/m3, the mass density (316.1 K, 9850 kPa, x1 = 0.0245) was 725 ± 4 kg/m3 and the mass density (316.1 K, 10200 kPa, x1 = 0.0245) was 741 ± 4 kg/m3. It also gave a mass density (316.1 K, 10240 kPa, x1 = 0.0245) of 743 ± 4 kg/m3, a mass density (316.1 K, 10290 kPa, x1 = 0.0245) of 746 ± 4 kg/m3 and a mass density (316.1 K, 10350 kPa, x1 = 0.0245) of 750 ± 4 kg/m3. The mass density (317.9 K, 7540 kPa, x1 = 0.1495) was 964 ± 4 kg/m3, the mass density (317.9 K, 7770 kPa, x1 = 0.1495) was 967 ± 4 kg/m3 and the mass density (317.9 K, 7950 kPa, x1 = 0.0989) was 850 ± 4 kg/m3. The mass density (317.9 K, 7990 kPa, x1 = 0.1495) was 970 ± 4 kg/m3, the mass density (317.9 K, 8090 kPa, x1 = 0.0989) was 853 ± 4 kg/m3 and the mass density (317.9 K, 8230 kPa, x1 = 0.0683) was 777 ± 4 kg/m3. The mass density (317.9 K, 8230 kPa, x1 = 0.1495) was 974 ± 4 kg/m3, the mass density (317.9 K, 8330 kPa, x1 = 0.0461) was 703 ± 4 kg/m3 and the mass density (317.9 K, 8340 kPa, x1 = 0.0683) was 780 ± 4 kg/m3. It also gave a mass density (317.9 K, 8370 kPa, x1 = 0.0461) of 705 ± 4 kg/m3, a mass density (317.9 K, 8370 kPa, x1 = 0.0989) of 859 ± 4 kg/m3 and a mass density (317.9 K, 8450 kPa, x1 = 0.0245) of 491 ± 4 kg/m3. The mass density (317.9 K, 8450 kPa, x1 = 0.0461) was 712 ± 4 kg/m3, the mass density (317.9 K, 8450 kPa, x1 = 0.1495) was 977 ± 4 kg/m3 and the mass density (317.9 K, 8460 kPa, x1 = 0.0245) was 493 ± 4 kg/m3. For the same molecule, the mass density (317.9 K, 8480 kPa, x1 = 0.0245) was 499 ± 4 kg/m3, the mass density (317.9 K, 8490 kPa, x1 = 0.0683) was 786 ± 4 kg/m3 and the mass density (317.9 K, 8500 kPa, x1 = 0.0245) was 506 ± 4 kg/m3. For the same molecule, the mass density (317.9 K, 8530 kPa, x1 = 0.0245) was 512 ± 4 kg/m3, the mass density (317.9 K, 8550 kPa, x1 = 0.0245) was 518 ± 4 kg/m3 and the mass density (317.9 K, 8550 kPa, x1 = 0.0461) was 721 ± 4 kg/m3. It also gave a mass density (317.9 K, 8570 kPa, x1 = 0.0245) of 525 ± 4 kg/m3, a mass density (317.9 K, 8600 kPa, x1 = 0.0245) of 532 ± 4 kg/m3 and a mass density (317.9 K, 8620 kPa, x1 = 0.0245) of 540 ± 4 kg/m3. The mass density (317.9 K, 8630 kPa, x1 = 0.0683) was 791 ± 4 kg/m3, the mass density (317.9 K, 8650 kPa, x1 = 0.0245) was 547 ± 4 kg/m3 and the mass density (317.9 K, 8650 kPa, x1 = 0.0989) was 865 ± 4 kg/m3. It also gave a mass density (317.9 K, 8660 kPa, x1 = 0.1495) of 980 ± 4 kg/m3, a mass density (317.9 K, 8680 kPa, x1 = 0.0461) of 731 ± 4 kg/m3 and a mass density (317.9 K, 8690 kPa, x1 = 0.0245) of 555 ± 4 kg/m3. It also gave a mass density (317.9 K, 8720 kPa, x1 = 0.0245) of 563 ± 4 kg/m3, a mass density (317.9 K, 8770 kPa, x1 = 0.0245) of 571 ± 4 kg/m3 and a mass density (317.9 K, 8790 kPa, x1 = 0.0683) of 797 ± 4 kg/m3. The mass density (317.9 K, 8800 kPa, x1 = 0.0245) was 579 ± 4 kg/m3, the mass density (317.9 K, 8820 kPa, x1 = 0.0245) was 583 ± 4 kg/m3 and the mass density (317.9 K, 8840 kPa, x1 = 0.0245) was 588 ± 4 kg/m3. It also gave a mass density (317.9 K, 8840 kPa, x1 = 0.0461) of 741 ± 4 kg/m3, a mass density (317.9 K, 8870 kPa, x1 = 0.0245) of 589 ± 4 kg/m3 and a mass density (317.9 K, 8890 kPa, x1 = 0.0245) of 597 ± 4 kg/m3. For the same molecule, the mass density (317.9 K, 8920 kPa, x1 = 0.0245) was 601 ± 4 kg/m3, the mass density (317.9 K, 8940 kPa, x1 = 0.0683) was 802 ± 4 kg/m3 and the mass density (317.9 K, 8950 kPa, x1 = 0.0989) was 871 ± 4 kg/m3. The mass density (317.9 K, 8960 kPa, x1 = 0.0245) was 608 ± 4 kg/m3, the mass density (317.9 K, 8960 kPa, x1 = 0.0461) was 748 ± 4 kg/m3 and the mass density (317.9 K, 8990 kPa, x1 = 0.1495) was 984 ± 4 kg/m3. For the same molecule, the mass density (317.9 K, 9100 kPa, x1 = 0.0461) was 756 ± 4 kg/m3, the mass density (317.9 K, 9130 kPa, x1 = 0.0683) was 808 ± 4 kg/m3 and the mass density (317.9 K, 9250 kPa, x1 = 0.1495) was 987 ± 4 kg/m3. For the same molecule, the mass density (317.9 K, 9270 kPa, x1 = 0.0461) was 764 ± 4 kg/m3, the mass density (317.9 K, 9300 kPa, x1 = 0.0989) was 877 ± 4 kg/m3 and the mass density (317.9 K, 9330 kPa, x1 = 0.0683) was 814 ± 4 kg/m3. The mass density (317.9 K, 9530 kPa, x1 = 0.0461) was 774 ± 4 kg/m3, the mass density (317.9 K, 9540 kPa, x1 = 0.0683) was 820 ± 4 kg/m3 and the mass density (317.9 K, 9580 kPa, x1 = 0.1495) was 990 ± 4 kg/m3. It also gave a mass density (317.9 K, 9670 kPa, x1 = 0.0989) of 884 ± 4 kg/m3, a mass density (317.9 K, 9770 kPa, x1 = 0.0683) of 826 ± 4 kg/m3 and a mass density (317.9 K, 9810 kPa, x1 = 0.0461) of 785 ± 4 kg/m3. It also gave a mass density (317.9 K, 9860 kPa, x1 = 0.1495) of 993 ± 4 kg/m3, a mass density (317.9 K, 10030 kPa, x1 = 0.0683) of 832 ± 4 kg/m3 and a mass density (317.9 K, 10050 kPa, x1 = 0.0989) of 890 ± 4 kg/m3. For the same molecule, the mass density (317.9 K, 10160 kPa, x1 = 0.0461) was 796 ± 4 kg/m3, the mass density (317.9 K, 10240 kPa, x1 = 0.1495) was 997 ± 4 kg/m3 and the mass density (317.9 K, 10310 kPa, x1 = 0.0683) was 838 ± 4 kg/m3. For the same molecule, the mass density (317.9 K, 10500 kPa, x1 = 0.0989) was 897 ± 4 kg/m3, the mass density (317.9 K, 10560 kPa, x1 = 0.1495) was 1000 ± 4 kg/m3 and the mass density (317.9 K, 10590 kPa, x1 = 0.0461) was 809 ± 4 kg/m3. It also gave a mass density (317.9 K, 10630 kPa, x1 = 0.0683) of 845 ± 4 kg/m3, a mass density (317.9 K, 10930 kPa, x1 = 0.1495) of 1004 ± 4 kg/m3 and a mass density (317.9 K, 10940 kPa, x1 = 0.0683) of 850 ± 4 kg/m3. The mass density (317.9 K, 10950 kPa, x1 = 0.0989) was 903 ± 4 kg/m3, the mass density (317.9 K, 11060 kPa, x1 = 0.0461) was 821 ± 4 kg/m3 and the mass density (317.9 K, 11270 kPa, x1 = 0.1495) was 1007 ± 4 kg/m3. For the same molecule, the mass density (317.9 K, 11310 kPa, x1 = 0.0683) was 858 ± 4 kg/m3, the mass density (317.9 K, 11470 kPa, x1 = 0.0989) was 910 ± 4 kg/m3 and the mass density (317.9 K, 11600 kPa, x1 = 0.0461) was 833 ± 4 kg/m3. It also gave a mass density (317.9 K, 11690 kPa, x1 = 0.0683) of 863 ± 4 kg/m3, a mass density (317.9 K, 11700 kPa, x1 = 0.1495) of 1011 ± 4 kg/m3 and a mass density (317.9 K, 11870 kPa, x1 = 0.0683) of 867 ± 4 kg/m3. It also gave a mass density (317.9 K, 11890 kPa, x1 = 0.0461) of 839 ± 4 kg/m3.
